From US20180340156A1, “PURIFICATION OF A SOLUBLE AND ACTIVE FORM OF ASPARTATE N-[…]” (The University of Toledo, priority 2015, published 2018)
Entries after “also recorded” stand apart in the source; their conditions may differ. One block for each molecule: values may come before it.

What was measured:
MBP-ANAT fusion enzyme [1] = target: T1, MBP-ANAT fusion enzyme (Homo sapiens, UniProt Q8N9F0); assay: DTNB-based ANAT enzyme activity assay, substrate kinetics; format: biochemical; details: for catalytic efficiency as alternative substrate relative to physiological substrate: alternative acetyl group acceptor vs L-aspartate; for alternative substrate activity: screen of amino acid library of 160 compounds
T1 construct: the full length ANAT enzyme has been expressed and purified in a fusion construct with MBP; made in house; host or cells: E. coli NiCo21(DE3)
T1 sequence (Q8N9F0 1-302): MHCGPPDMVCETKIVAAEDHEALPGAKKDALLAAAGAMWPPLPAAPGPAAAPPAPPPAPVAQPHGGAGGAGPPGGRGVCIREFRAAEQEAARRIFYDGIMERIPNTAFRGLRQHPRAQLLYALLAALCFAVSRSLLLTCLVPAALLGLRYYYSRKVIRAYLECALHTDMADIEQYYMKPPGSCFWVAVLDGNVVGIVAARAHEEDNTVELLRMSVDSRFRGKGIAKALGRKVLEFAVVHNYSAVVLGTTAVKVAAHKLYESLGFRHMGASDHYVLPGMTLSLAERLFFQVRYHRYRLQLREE
Description: (§1) The ANAT activity was measured by an established DTNB-based assay in which the coenzyme A product participates in a thiol exchange reaction with DTNB. This assay is illustrated in FIGS. 4A-4B. The resulting TNB^2− ion was monitored at 412 nm (c=14.15 mM^−1cm^−1) using a SpectraMax 190 spectrophotometer plate reader (Molecular Devices, CA).
(§2) The DTNB-based assay was used to measure the kinetic parameters for the physiological substrates and some alternative ANAT substrates.
The kinetic parameters for the physiological substrates of ANAT were determined using the assay described above by varying the concentrations of both substrates and fitting the data to the equation for a sequential kinetic mechanism (eq. 1). […] A screen for alternative substrates was conducted using a customized amino acid library containing a total of 160 compounds.

membrane-bound ANAT = target: T2, membrane-bound ANAT (Homo sapiens, UniProt Q8N9F0); assay: Detergent solubilization/extraction of native ANAT from membrane fraction
T2 construct: polyhistidine tag (C); made in house; host or cells: E. coli BL21(DE3), membrane fraction
T2 sequence (Q8N9F0 1-302): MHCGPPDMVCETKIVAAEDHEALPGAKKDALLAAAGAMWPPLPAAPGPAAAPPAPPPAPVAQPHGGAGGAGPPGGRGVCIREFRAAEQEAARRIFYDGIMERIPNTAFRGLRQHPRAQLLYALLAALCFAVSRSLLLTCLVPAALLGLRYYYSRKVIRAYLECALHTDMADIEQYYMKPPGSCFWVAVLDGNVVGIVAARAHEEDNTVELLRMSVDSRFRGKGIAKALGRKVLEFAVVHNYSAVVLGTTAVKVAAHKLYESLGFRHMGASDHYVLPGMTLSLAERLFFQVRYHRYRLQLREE
Description: The human nat8l gene was cloned into the pETDEST42 plasmid using the Gateway cloning technology (Life Technologies). This plasmid was used to transform E. coli BL21(DE3) cells for protein production. The cells were grown at 37° C. to an A600 of 0.6-0.8 in Luria-Bertani (LB) medium containing 100 μg/mL ampicillin, and gene expression was then induced with 1 mM isopropyl […] (IPTG) at 28° C. for 5 hours. The cell pellet was resuspended in buffer A [50 mM HEPES, 500 mM NaCl and 10% glycerol (pH 7.4)] and lysed by sonication on ice for 8 min with 30 s pulse on and 2 min pulse off cycle. The cell lysate was centrifuged at 11,000 rpm for 30 minutes to pellet cell debris and unlysed cells. The membrane fraction was collected by high-speed centrifugation of the supernatant at 40,000 rpm for 1 h. Solubilization trials of ANAT from the membrane fraction were conducted with a variety of different detergents that include ionic, non-ionic, and zwitterionic detergents. Twenty microliter aliquots of the resuspended membrane fraction were mixed with different amounts of stock detergent solutions each prepared at 10 times their critical micelle concentration (CMC), leading to a final concentration of 1.5×CMC and […]. These solutions were incubated at room temperature for 1 h or at 4° C. overnight in a rocking platform.

MBP-ANAT fusion enzyme [2] = target: T1, MBP-ANAT fusion enzyme; assay: Effect of detergents on ANAT activity (DTNB-based assay, saturating substrates); format: biochemical; details: incubation with detergent at CMC
Description: This assay is illustrated in FIGS. 4A-4B.
(§3) The effect of detergent properties on ANAT activity was tested using a variety of different detergents, each at their critical micelle concentration (CMC) levels. All measurements were conducted at least in duplicate by using the DTNB-based assay at saturating substrates levels. The effect of an organic solvent on ANAT activity was also evaluated by varying the DMSO concentration in the assay from 0 to 50%. To test the stability of the purified MBP-ANAT-his construct, the enzyme was stored at 4° C. for several days and activity was monitored daily. To test for the optimal long term storage conditions, the enzyme activity was followed through multiple freeze-thaw cycles between −80° C. and room temperature.

[3] = target: ANAT fusion enzyme with GST (Homo sapiens, UniProt Q8N9F0); details: L-aspartate as substrate
Description: as §1, §2

[4] = substrate: CC(=O)SCCNC(=O)CCNC(=O)[C@H](O)C(C)(C)COP(=O)(O)OP(=O)(O)OC[C@H]1O[C@@H](n2cnc3c(N)ncnc32)[C@H](O)[C@@H]1OP(=O)(O)O; assay: purified protein, by the assay type; details: other: acetyl-CoA as substrate, MBP-ANAT fusion, sequential mechanism fit, pH 7.4
[5] = Enzyme stability on storage at 4° C. and freeze-thaw cycles; format: physicochemical; details: stored at 4° C. for several days to one week, assayed daily
Description: as §3

- extraction efficiency of membrane-bound ANAT (membrane-bound ANAT; 8.7 CMC): effective
- loss of catalytic activity (MBP-ANAT fusion enzyme [2]): significant loss of activity
Molecule: OC[C@H]1O[C@H](O[C@H]2[C@H](O)[C@@H](O)[C@H](OCCCCCC3CCCCC3)O[C@@H]2CO)[C@H](O)[C@@H](O)[C@@H]1O [Cymal 5]

- extraction efficiency of membrane-bound ANAT (membrane-bound ANAT; 8.7 CMC): effective
Molecule: CCCCCCCCCCCCO[C@@H]1O[C@H](CO)[C@@H](O[C@H]2O[C@H](CO)[C@@H](O)[C@H](O)[C@H]2O)[C@H](O)[C@H]1O [DDM]

- Km [3]: 100 µM
- Km (MBP-ANAT fusion enzyme [1]; L-aspartate as substrate, MBP-ANAT fusion, sequential mechanism fit, pH 7.4): 160 µM
Molecule: N[C@@H](CC(=O)O)C(=O)O [L-aspartate]

- loss of catalytic activity (MBP-ANAT fusion enzyme [2]): significant loss of activity
Molecule: CCCCCCCCO[C@@H]1O[C@H](CO)[C@@H](O)[C@H](O)[C@H]1O [octylglucoside]

Continued, molecule first:

Molecule: NC(C(=O)O)C(N)C(=O)O (stereo not drawn) [2,3-diaminosuccinate]
- catalytic efficiency as alternative substrate relative to physiological substrate (MBP-ANAT fusion enzyme [1]): less than 10%

Molecule: CCCCCCCCCCCCOCCOCCOCCOCCOCCOCCOCCOCCO [C12E8]
- extraction efficiency of membrane-bound ANAT (membrane-bound ANAT; non-ionic detergents, 1.5 CMC): highest extraction efficiency

Molecule: N[C@@H](CCC(=O)O)C(=O)O [L-glutamate]
- catalytic efficiency as alternative substrate relative to physiological substrate (MBP-ANAT fusion enzyme [1]): less than 1%
- alternative substrate activity (MBP-ANAT fusion enzyme [1]): profound loss of activity

Molecule: CCCCCCCCCCCC[N+](C)(C)[O-] [LDAO]
- loss of catalytic activity (MBP-ANAT fusion enzyme [2]): nearly complete loss of catalytic activity

Molecule: CCCCCCCCCCCCOS(=O)(=O)[O-].[Na+] [SDS]
- loss of catalytic activity (MBP-ANAT fusion enzyme [2]): nearly complete loss of catalytic activity

Molecule: CC(C(=O)O)[C@H](N)C(=O)O (stereo partly drawn) [β-methylaspartate]
- alternative substrate activity (MBP-ANAT fusion enzyme [1]): best of these few alternative substrates; also recorded: profound loss of activity

B1: MBP-ANAT fusion enzyme (Homo sapiens) (protein)
chain: MHCGPPDMVCETKIVAAEDHEALPGAKKDALLAAAGAMWPPLPAAPGPAAAPPAPPPAPVAQPHGGAGGAGPPGGRGVCIREFRAAEQEAARRIFYDGIMERIPNTAFRGLRQHPRAQLLYALLAALCFAVSRSLLLTCLVPAALLGLRYYYSRKVIRAYLECALHTDMADIEQYYMKPPGSCFWVAVLDGNVVGIVAARAHEEDNTVELLRMSVDSRFRGKGIAKALGRKVLEFAVVHNYSAVVLGTTAVKVAAHKLYESLGFRHMGASDHYVLPGMTLSLAERLFFQVRYHRYRLQLREE
- Km [4]: 3.1 µM

B2: native enzyme: human aspartate N-acetyltransferase without the MBP fusion domain (protein, UniProt Q8N9F0 1-302, looked up)
N-acetylaspartate synthetase: MHCGPPDMVCETKIVAAEDHEALPGAKKDALLAAAGAMWPPLPAAPGPAAAPPAPPPAPVAQPHGGAGGAGPPGGRGVCIREFRAAEQEAARRIFYDGIMERIPNTAFRGLRQHPRAQLLYALLAALCFAVSRSLLLTCLVPAALLGLRYYYSRKVIRAYLECALHTDMADIEQYYMKPPGSCFWVAVLDGNVVGIVAARAHEEDNTVELLRMSVDSRFRGKGIAKALGRKVLEFAVVHNYSAVVLGTTAVKVAAHKLYESLGFRHMGASDHYVLPGMTLSLAERLFFQVRYHRYRLQLREE
- loss of activity on storage [5]: substantial loss of catalytic activity
